In PMC2880318 (Immunome Research, 2010):
pIC50: −log10 of the molar value. Where a SMILES comes first, the peptide text is derived from it.

These compounds were tested against purified HLA-DRB1*0101 (Homo sapiens, UniProt P01903+P01911, A100R/D57E/F55L/F60I/F76Y/I96L/L162R/M171V/P40L/Q125E/R42F/V115G/Y59C) (assay: biochemical).
Format: binding

Structure (SMILES) | pIC50
CC[C@H](C)[C@H](NC(=O)[C@H](C)NC(=O)[C@H](CCC(=O)O)NC(=O)[C@H](CC(C)C)NC(=O)[C@@H](NC(=O)[C@H](CC(=O)O)NC(=O)[C@H](CC(C)C)NC(=O)[C@H](CC(C)C)NC(=O)[C@@H](N)CCCNC(=N)N)[C@@H](C)CC)C(=O)N[C@@H](CCCCN)C(=O)N[C@@H](CC(C)C)C(=O)N[C@H](C(=O)N[C@@H](CCCNC(=N)N)C(=O)N[C@@H](CCCCN)C(=O)N[C@@H](CCCCN)C(=O)O)[C@@H](C)CC [JUNV L391-405] | 9.32
CC(C)C[C@H](NC(=O)[C@H](CO)NC(=O)[C@@H]1CCCN1C(=O)[C@@H]1CCCN1C(=O)[C@H](C)NC(=O)[C@@H](NC(=O)[C@H](CCCNC(=N)N)NC(=O)[C@H](CCCNC(=N)N)NC(=O)[C@H](Cc1ccccc1)NC(=O)[C@H](CCC(=O)O)NC(=O)[C@H](C)NC(=O)[C@H](CO)NC(=O)[C@@H]1CCCN1)[C@@H](C)O)C(=O)N[C@@H](Cc1ccc(O)cc1)C(=O)NCC(=O)O [MACV Z21-35] (H-PSAEFRRTAPPSLYG-OH) | 8.70
CC[C@H](C)[C@H](NC(=O)[C@H](CC(=O)O)NC(=O)[C@H](CC(N)=O)NC(=O)[C@H](Cc1ccccc1)NC(=O)[C@@H](NC(=O)[C@H](CCCCN)NC(=O)[C@H](CCCNC(=N)N)NC(=O)[C@H](C)NC(=O)[C@H](CS)NC(=O)[C@H](CC(N)=O)NC(=O)[C@H](CCCNC(=N)N)NC(=O)[C@@H](NC(=O)[C@H](Cc1ccccc1)NC(=O)[C@@H](N)CCSC)[C@@H](C)CC)C(C)C)C(=O)N[C@@H](CCCCN)C(=O)O [JUNV L1491-1505] | 8.70
CC[C@H](C)[C@H](NC(=O)[C@H](CS)NC(=O)[C@H](CC(=O)O)NC(=O)[C@@H](N)CCSC)C(=O)N[C@H](C(=O)N[C@@H](Cc1ccccc1)C(=O)N[C@@H](CCC(=O)O)C(=O)N[C@@H](CO)C(=O)N[C@@H](C)C(=O)N[C@@H](CO)C(=O)N[C@@H](CCCCN)C(=O)N[C@@H](C)C(=O)N[C@@H](CCCNC(=N)N)C(=O)N[C@@H](CC(C)C)C(=O)N1CCC[C@H]1C(=O)O)[C@@H](C)CC [LCMV NP521-535] | 8.36
CC[C@H](C)[C@H](NC(=O)[C@H](CC(C)C)NC(=O)[C@H](Cc1ccccc1)NC(=O)[C@@H](NC(=O)[C@H](CC(N)=O)NC(=O)[C@@H](NC(=O)CNC(=O)CNC(=O)[C@H](CCCCN)NC(=O)[C@H](CCSC)NC(=O)[C@H](Cc1ccc(O)cc1)NC(=O)[C@H](Cc1ccc(O)cc1)NC(=O)[C@H](Cc1ccccc1)NC(=O)[C@H](CO)NC(=O)[C@@H](N)CC(N)=O)C(C)C)[C@@H](C)O)C(=O)O [MACV GPC96-110] | 9.68
CC[C@H](C)[C@H](NC(=O)[C@H](Cc1c[nH]cn1)NC(=O)[C@H](Cc1c[nH]cn1)NC(=O)[C@@H](NC(=O)[C@H](CCC(N)=O)NC(=O)[C@H](CC(N)=O)NC(=O)[C@H](C)NC(=O)[C@H](Cc1ccccc1)NC(=O)[C@H](C)NC(=O)[C@H](CCSC)NC(=O)[C@H](CC(C)C)NC(=O)[C@H](Cc1ccccc1)NC(=O)[C@H](Cc1ccc(O)cc1)NC(=O)[C@@H](N)CCCNC(=N)N)[C@@H](C)CC)C(=O)N[C@@H](CC(=O)O)C(=O)O [MACV L636-650] | 9.62
CC[C@H](C)[C@H](NC(=O)[C@@H](N)Cc1ccccc1)C(=O)N[C@H](C(=O)N[C@@H](Cc1ccccc1)C(=O)N[C@@H](CC(C)C)C(=O)N[C@@H](CC(C)C)C(=O)N[C@@H](CC(C)C)C(=O)N[C@@H](C)C(=O)NCC(=O)N[C@@H](CCCNC(=N)N)C(=O)N[C@@H](CO)C(=O)N[C@@H](CS)C(=O)N[C@@H](CO)C(=O)N[C@@H](Cc1ccc(O)cc1)C(=O)N[C@@H](CCCCN)C(=O)O)C(C)C [WWAV GPC46-60] (H-FIVFLLLAGRSCSYK-OH) | 8.92
CC(C)C[C@H](NC(=O)[C@H](CO)NC(=O)[C@H](CCCNC(=N)N)NC(=O)[C@H](CCC(=O)O)NC(=O)[C@H](Cc1ccccc1)NC(=O)[C@H](CC(N)=O)NC(=O)[C@H](CC(C)C)NC(=O)[C@H](Cc1c[nH]cn1)NC(=O)[C@@H](NC(=O)[C@H](CCCCN)NC(=O)[C@@H](N)CO)[C@@H](C)O)C(=O)N[C@@H](CCCCN)C(=O)N[C@@H](C)C(=O)N[C@@H](Cc1ccccc1)C(=O)N[C@@H](Cc1ccccc1)C(=O)O [MACV GPC251-265] | 8.77
CC[C@H](C)[C@H](NC(=O)[C@H](CC(C)C)NC(=O)[C@H](CO)NC(=O)[C@@H](N)C(C)C)C(=O)N[C@@H](C)C(=O)N[C@@H](C)C(=O)N[C@@H](CC(C)C)C(=O)N[C@@H](CCCCN)C(=O)NCC(=O)N[C@@H](CCSC)C(=O)N[C@H](C(=O)N[C@@H](CC(N)=O)C(=O)N[C@@H](CC(C)C)C(=O)N[C@@H](Cc1c[nH]c2ccccc12)C(=O)N[C@@H](CCCCN)C(=O)O)[C@@H](C)CC [SABV GPC26-40] (H-VSLIAALKGMINLWK-OH) | 9.33
CC[C@H](C)[C@H](NC(=O)[C@H](Cc1c[nH]c2ccccc12)NC(=O)[C@H](CC(=O)O)NC(=O)[C@H](Cc1ccccc1)NC(=O)[C@H](CCC(=O)O)NC(=O)[C@@H]1CCCN1C(=O)[C@H](CO)NC(=O)CNC(=O)[C@@H](N)CCCCN)C(=O)N[C@@H](CC(C)C)C(=O)NCC(=O)N[C@@H](Cc1c[nH]c2ccccc12)C(=O)N[C@H](C(=O)N[C@H](C(=O)N[C@@H](CCCCN)C(=O)O)[C@@H](C)CC)[C@@H](C)O [GTOV GPC131-145] (H-KGSPEFDWILGWTIK-OH) | 8.77
CC[C@H](C)[C@H](N)C(=O)N[C@@H](CO)C(=O)NCC(=O)N[C@@H](Cc1ccc(O)cc1)C(=O)N[C@@H](CC(N)=O)C(=O)N[C@@H](Cc1ccccc1)C(=O)N[C@@H](CO)C(=O)N[C@@H](CC(C)C)C(=O)N[C@@H](CO)C(=O)N[C@@H](C)C(=O)N[C@@H](C)C(=O)N[C@H](C(=O)N[C@@H](CCCCN)C(=O)N[C@@H](C)C(=O)NCC(=O)O)C(C)C [GTOV NP236-250] | 9.92
CC(C)C[C@H](NC(=O)[C@H](C)NC(=O)[C@H](CC(C)C)NC(=O)[C@H](Cc1ccccc1)NC(=O)[C@@H](NC(=O)[C@H](Cc1ccccc1)NC(=O)[C@@H](N)Cc1ccccc1)C(C)C)C(=O)N[C@@H](C)C(=O)NCC(=O)N[C@@H](CCCNC(=N)N)C(=O)N[C@@H](CO)C(=O)N[C@@H](CS)C(=O)N[C@H](C(=O)N[C@@H](CCC(=O)O)C(=O)N[C@@H](CCC(=O)O)C(=O)O)[C@@H](C)O [JUNV GPC46-60] | 9.64
CC(C)C[C@H](NC(=O)[C@H](CCC(=O)O)NC(=O)[C@H](CCCNC(=N)N)NC(=O)[C@H](CCCNC(=N)N)NC(=O)[C@H](CC(C)C)NC(=O)[C@H](C)NC(=O)[C@H](CCC(N)=O)NC(=O)[C@@H](NC(=O)[C@H](Cc1c[nH]c2ccccc12)NC(=O)[C@H](CCC(N)=O)NC(=O)[C@H](Cc1ccccc1)NC(=O)[C@H](CO)NC(=O)[C@H](CCCCN)NC(=O)[C@@H](NC(=O)[C@@H](N)CCC(=O)O)C(C)C)[C@@H](C)O)C(=O)O [LCMV NP6-20] | 7.31
CC[C@H](C)[C@H](N)C(=O)N[C@@H](CCC(N)=O)C(=O)N[C@@H](CC(C)C)C(=O)N[C@H](C(=O)N[C@@H](Cc1ccccc1)C(=O)N[C@@H](CO)C(=O)N[C@@H](CO)C(=O)N[C@@H](CCSC)C(=O)N[C@H](C(=O)N[C@@H](CC(N)=O)C(=O)N1CCC[C@H]1C(=O)N[C@@H](CC(C)C)C(=O)N[C@H](C(=O)N[C@H](C(=O)N[C@H](C(=O)O)[C@@H](C)O)[C@@H](C)CC)C(C)C)[C@@H](C)CC)C(C)C [GTOV L1826-1840] (H-IQLVFSSMINPLVIT-OH) | 9.64
